According to US20250092065A1, “2-(INDAZOL-5-YL)-6-(PIPERIDIN-4-YL)-1,7-NAPHTHYRIDINE DERIVATIVES AND RELATED COMPOUNDS AS MODULATORS FOR SPLICING NUCLEIC ACIDS AND FOR THE TREATMENT OF PROLIFERATIVE DISEASES” (REMIX THERAPEUTICS INC., priority 2022, published 2025):
Where two headings read alike, the source gives them in different places.

Key:
Type in all cases: cell-based, human
Target C = experiment: HiBiT protein abundance assay, Target C (K562 HiBiT knock-in); settings: HiBiT knock-in K562 cells, 24 hours, top dose 10 μM
Outline: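 K562 HiBiT knock-in cells (10000/well) were treated 24 h at 37° C with a 10-point 3-fold dilution series (top 10 μM final, ≤0.25% DMSO). HiBiT luminescence was read after lytic LgBiT detection. Percent response used unmodified K562 and DMSO-treated knock-in controls, and IC50 came from a four-parameter fit at 50% of untreated.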

MYB mRNA = experiment: RT-qPCR splicing assay, MYB mRNA canonical (CJ) and alternative (AJ) junction; settings: Homo sapiens; for AC50: MYB alternative junction mRNA, read-out: MYB AJ (increase in AJ mRNA, AC50)
Outline: (§1)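 Junction-specific RT-qPCR read-out: CJ and AJ isoform levels, housekeeper-normalized (GAPDH/GUSB/PPIA), ΔΔCt vs DMSO, converted to RQ then % response. Cells: A673 (DMEM/10% FBS, adhered 24 h) or K562 (IMDM/10% FBS). Compound 11-pt 3-fold, top 10 uM, 24 h, 37 °C.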

SMN2 mRNA = experiment: RT-qPCR splicing assay, SMN2 mRNA; settings: Homo sapiens, canonical junction qPCR panel, Table 4; read-out: SMN2 IC50 (decrease in CJ mRNA levels)
Outline: as §1

HTT mRNA = experiment: RT-qPCR splicing assay, HTT mRNA canonical (CJ) and alternative (AJ) junction; settings: Homo sapiens; for AC50: HTT alternative junction mRNA, read-out: HTT AJ (increase in AJ mRNA, AC50)
Outline: as §1

MYB = experiment: HiBiT protein abundance assay, MYB (K562 HiBiT knock-in); settings: HiBiT knock-in K562 cells, 24 hours, top dose 10 μM
Outline: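 Tagged-protein levels were measured as HiBiT/LgBiT luminescence in lysed K562 knock-in cells exposed to serially diluted compound (up to 10 μM final) for 24 hours. A four-parameter logistic regression of control-normalized signal yielded the IC50.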

[1] = MYB canonical junction mRNA, RT-qPCR, read-out: MYB CJ (decrease in CJ mRNA levels, IC50)
[2] = canonical junction qPCR panel, Table 4, read-out: MYB IC50 (decrease in CJ mRNA levels)
[3] = HTT canonical junction mRNA, RT-qPCR, read-out: HTT CJ (decrease in CJ mRNA levels, IC50)
[4] = canonical junction qPCR panel, Table 4, read-out: HTT IC50 (decrease in CJ mRNA levels)

| SMILES | IC50 (Target C) | IC50 (MYB mRNA; [1]) | IC50 (MYB mRNA; [2]) | IC50 (SMN2 mRNA) | IC50 (HTT mRNA; [3]) | IC50 (HTT mRNA; [4]) | IC50 (MYB) | AC50 (MYB mRNA; RT-qPCR) | AC50 (HTT mRNA; RT-qPCR) |
| --- | --- | --- | --- | --- | --- | --- | --- | --- | --- |
| Cc1cc(-c2ccc3nc(N4CCC(NC(C)(C)C)C4)ccc3n2)nc2cn(C)nc12 (stereo not drawn) [Compound 248] | 100 to 1000 nM | 1000 to 10000 nM | 1000 to 10000 nM | 100 to 1000 nM | 1000 to 10000 nM | 1000 to 10000 nM | 1000 to 10000 nM | 1000 to 10000 nM | 100 to 1000 nM |
| COc1c(-c2ccc3nc(N4CCC(NC(C)(C)C)C4)ccc3n2)cc2c[nH]nc2c1C (stereo not drawn) [Compound 251] | 100 to 1000 nM | > 10000 nM | > 10000 nM | > 10000 nM | > 10000 nM | > 10000 nM | > 10000 nM | > 10000 nM | > 10000 nM |
| Cc1cn2nc(-c3ccc4nc(N5CCC(NC6CC6)C5)ccc4n3)c(O)c2c(C)n1 (stereo not drawn) [Compound 252] | 100 to 1000 nM | 100 to 1000 nM | 100 to 1000 nM | < 100 nM | < 100 nM | < 100 nM | 100 to 1000 nM | 100 to 1000 nM | 100 to 1000 nM |
| Cn1cc2cc(-c3ccc4nc(N5CCC(NC67CC(C6)C7)C5)ccc4n3)c(O)cc2n1 (stereo not drawn) [Compound 297, 5-[6-(3-{bicyclo[1.1.1]pentan-1-ylamino}pyrrolidin-1-yl)-1,5-naphthyridin-2-yl]-2-methylindazol-6-ol] | 1000 to 10000 nM | 1000 to 10000 nM | 1000 to 10000 nM | 100 to 1000 nM | 1000 to 10000 nM | 1000 to 10000 nM | 1000 to 10000 nM | 100 to 1000 nM | 1000 to 10000 nM |
| Cn1cc2cc(-c3ccc4nc(N5CC[C@H](N[C@H]6C[C@@H](F)C6)C5)ccc4n3)c(O)cc2n1 [Compound 299, 2-methyl-5-{6-[(3S)-3-{[(1s,3s)-3-fluorocyclobutyl]amino}pyrrolidin-1-yl]-1,5-naphthyridin-2-yl}indazol-6-ol] | 100 to 1000 nM | < 100 nM | < 100 nM | < 100 nM | < 100 nM | < 100 nM | < 100 nM | < 100 nM | 100 to 1000 nM |
| Cc1c(O)c(-c2ccc3nc(N4CCC(NC5COC5)C4)ccc3n2)cc2cn(C)nc12 (stereo not drawn) [Compound 302, 2,7-dimethyl-5-{6-[3-(oxetan-3-ylamino)pyrrolidin-1-yl]-1,5-naphthyridin-2-yl}Indazol-6-ol] | 100 to 1000 nM | 100 to 1000 nM | 100 to 1000 nM | < 100 nM | 100 to 1000 nM | 100 to 1000 nM | 100 to 1000 nM | 100 to 1000 nM | 100 to 1000 nM |
| Cc1nc2c(C)c(O)c(-c3ccc4nc(N5CCC(NC6(C)CC6)C5)ccc4n3)cc2o1 (stereo not drawn) [Compound 309, 2,4-dimethyl-6-(6-{3-[(1-methylcyclopropyl)amino]pyrrolidin-1-yl}-1,5-naphthyridin-2-yl)-1,3-benzoxazol-5-ol] | < 100 nM | < 100 nM | < 100 nM | < 100 nM | < 100 nM | < 100 nM | < 100 nM | < 100 nM | < 100 nM |
| Cc1nc2c(C)c(O)c(-c3ccc4nc(N5CCC(NC(C)C)C5)ccc4n3)cc2o1 (stereo not drawn) [Compound 312, 6-{6-[3-(isopropylamino)pyrrolidin-1-yl]-1,5-naphthyridin-2-yl}-2,4-dimethyl-1,3-benzoxazol-5-ol] | < 100 nM | < 100 nM | < 100 nM | < 100 nM | < 100 nM | < 100 nM | < 100 nM | < 100 nM | < 100 nM |
| Cn1cc2cc(-c3ccc4nc(N5CCC(NC6CCC6)C5)ccc4n3)c(O)c(F)c2n1 (stereo not drawn) [Compound 315, 5-{6-[3-(cyclobutylamino)pyrrolidin-1-yl]-1,5-naphthyridin-2-yl}-7-fluoro-2-methylindazol-6-ol] | < 100 nM | < 100 nM | < 100 nM | < 100 nM | < 100 nM | < 100 nM | < 100 nM | < 100 nM | < 100 nM |

Further lines, with some results ahead:

| IC50 (Target C) | IC50 (MYB mRNA; [1]) | IC50 (MYB mRNA; [2]) | IC50 (SMN2 mRNA) | IC50 (HTT mRNA; [3]) | IC50 (HTT mRNA; [4]) | IC50 (MYB) | SMILES | AC50 (MYB mRNA; RT-qPCR) | AC50 (HTT mRNA; RT-qPCR) |
| --- | --- | --- | --- | --- | --- | --- | --- | --- | --- |
| < 100 nM | < 100 nM | < 100 nM | < 100 nM | < 100 nM | < 100 nM | < 100 nM | Cc1nc2cc(O)c(-c3ccc4nc(N5CC[C@@H](NC6CCC6)C5)ccc4n3)cc2o1 [Compound 229] | < 100 nM | < 100 nM |
| < 100 nM | 100 to 1000 nM | 100 to 1000 nM | < 100 nM | < 100 nM | < 100 nM | 100 to 1000 nM | Cc1nc2cc(O)c(-c3ccc4nc(N5CC[C@H](NC6CCC6)C5)ccc4n3)cc2o1 [Compound 230] | 100 to 1000 nM | < 100 nM |
| < 100 nM | < 100 nM | < 100 nM | < 100 nM | < 100 nM | < 100 nM | < 100 nM | Cc1nc2cc(O)c(-c3ccc4nc(N5CCC(NC(C)C)C5)ccc4n3)cc2o1 (stereo not drawn) [Compound 231] | < 100 nM | < 100 nM |
| < 100 nM | < 100 nM | < 100 nM | < 100 nM | < 100 nM | < 100 nM | < 100 nM | Cc1nc2c(C)c(O)c(-c3ccc4nc(N5CCC(NC6CCC6)C5)ccc4n3)cc2o1 (stereo not drawn) [Compound 235] | < 100 nM | < 100 nM |
| < 100 nM | < 100 nM | < 100 nM | < 100 nM | < 100 nM | < 100 nM | < 100 nM | Cc1nc2c(C)c(O)c(-c3ccc4nc(N5CC[C@@H](NC6CCC6)C5)ccc4n3)cc2o1 [Compound 236] | < 100 nM | < 100 nM |
| < 100 nM | < 100 nM | < 100 nM | < 100 nM | < 100 nM | < 100 nM | < 100 nM | Cc1nc2c(C)c(O)c(-c3ccc4nc(N5CC[C@H](NC6CCC6)C5)ccc4n3)cc2o1 [Compound 237] | < 100 nM | < 100 nM |
| < 100 nM | < 100 nM | < 100 nM | < 100 nM | < 100 nM | < 100 nM | < 100 nM | Cc1c(O)c(-c2ccc3nc(N4CC[C@@H](NC(C)(C)C)C4)ccc3n2)cc2cn(C)nc12 [Compound 249] | < 100 nM | < 100 nM |
| < 100 nM | < 100 nM | < 100 nM | < 100 nM | < 100 nM | < 100 nM | < 100 nM | Cc1c(O)c(-c2ccc3nc(N4CC[C@H](NC(C)(C)C)C4)ccc3n2)cc2cn(C)nc12 [Compound 250] | < 100 nM | < 100 nM |
| < 100 nM | < 100 nM | < 100 nM | < 100 nM | < 100 nM | < 100 nM | < 100 nM | Cc1c(O)c(-c2ccc3nc(N4CCC(NCC5CC5)C4)ccc3n2)cc2cn(C)nc12 (stereo not drawn) [Compound 284, 5-(6-{3-[(cyclopropylmethyl)amino]pyrrolidin-1-yl}-1,5-naphthyridin-2-yl)-2,7-dimethylindazol-6-ol] | 100 to 1000 nM | < 100 nM |
| < 100 nM | < 100 nM | < 100 nM | < 100 nM | < 100 nM | < 100 nM | < 100 nM | Cc1c(O)c(-c2ccc3nc(N4CCC(NC5CCC5)C4)ccc3n2)cc2cn(C)nc12 (stereo not drawn) [Compound 288, 5-{6-[3-(cyclobutylamino)pyrrolidin-1-yl]-1,5-naphthyridin-2-yl}-2,7-dimethylindazol-6-ol] | < 100 nM | < 100 nM |
| < 100 nM | < 100 nM | < 100 nM | < 100 nM | < 100 nM | < 100 nM | < 100 nM | Cc1nc2c(F)c(O)c(-c3ccc4nc(N5CCC(NC6CCC6)C5)ccc4n3)cc2o1 (stereo not drawn) [Compound 293, 6-{6-[3-(cyclobutylamino)pyrrolidin-1-yl]-1,5-naphthyridin-2-yl}-4-fluoro-2-methyl-1,3-benzoxazol-5-ol] | < 100 nM | < 100 nM |
| < 100 nM | < 100 nM | < 100 nM | < 100 nM | < 100 nM | < 100 nM | < 100 nM | Cn1cc2nc(-c3ccc4nc(N5CCC(NC(C)(C)C)C5)ccc4n3)c(O)cc2n1 (stereo not drawn) [Compound 298, 5-{6-[3-(tert-butylamino)pyrrolidin-1-yl]-1,5-naphthyridin-2-yl}-2-methylpyrazolo[4,3-b]pyridin-6-ol] | < 100 nM | < 100 nM |
